Consider 13 compounds from article PMC12406258, “Uncovering the Unusual Inhibition Mechanism of a Trypanosome Alternative Oxidase Inhibitor Displaying Broad-Spectrum Activity against African Animal Trypanosomes” (Journal of Medicinal Chemistry, 2025).

Values joined by “and” are separate entries in the source; they are usually repeats but may differ in a detail not shown here. Equal values may be shown once. Read-outs that look alike come from different tables or passages of the source.

Data set [1] addresses T1, recombinant TAO (ΔMTS rTAO) (Trypanosoma brucei brucei, UniProt Q26710).
T1 construct: […]; SUMO (Small Ubiquitin-related Modifier) fusion from the expression system; made in house
Conditions: ref earlier reports; cited from earlier work.

Data set [2] addresses T1, recombinant TAO (ΔMTS rTAO). Put plainly: Inhibition of ubiquinol oxidase activity of purified recombinant TAO. It is filed as biochemical, T. brucei. The protocol: This physiologically relevant rTAO enzyme was used throughout this work and in this experiment to study the inhibitory activity of 1.
As previously described, the Ubiquinol oxidase activity measurement was carried out using recombinant TAO lacking the mitochondrial targeting signal (ΔMTS). […] The reaction was carried out in a 1 cm cuvette for 2 min using a V-630 Jasco UV–vis spectrophotometer (Jasco Corporation, Tokyo, Japan). Briefly, the procedure involves preincubating 250 ng of the enzyme for 2 min in a 50 mM Tris-HCl (pH 7.3) buffer containing the detergent octaethylene glycol monododecylether (0.05% (w/v)) in a total reaction volume of 1 mL at 25 °C. […] For the inhibition reaction, 250 ng of the enzyme was preincubated with varying inhibitor concentrations for 2 min using the same buffer before the substrate was added. […] This was achieved using the same protocol but without TAO. […] The residual activities were plotted against the corresponding inhibitor concentration in a GraphPad Prism-9 software to obtain the IC50 value.

The target is the same in data set [3]. As to conditions: ref reported earlier, cited from earlier work.
Details of data set [4]: method as in previous studies. Conditions: ref previous studies, cited from earlier work.
In data set [5] the test system is STIB900 mouse model. Further details: method as in previous studies. As to conditions: 24 h after the last treatment, 4 × 10 mg/kg ip; ref previous studies; cited from earlier work.
Data set [6] deals with T. b. brucei WT (s427) trypomastigotes. Put plainly: microbe, parasite or virus in culture. It is filed as cell-based. As to conditions: Trypanosoma brucei. On the procedure:
(§1) Other Trypanosoma species used in this study include T. evansi AntTat 3/3 (Wild-type); and T. equiperdum BoTat 1 (Bordeaux trypanozoon antigenic type 1) P (wild-type). All the trypanosomes were used only as bloodstream trypomastigotes and cultured in the standard Hirumi’s Modified Iscove’s medium #9 (HMI-9), supplemented with 10% heat-inactivated Fetal Bovine Serum (FBS), 14 μL/L β-mercaptoethanol, and 3.0 g sodium hydrogen carbonate per liter of medium (pH 7.4). Trypanosomes were cultured in vented flasks at 37 °C in a 5% CO2 atmosphere.
(§2) Briefly, this protocol involves preparing a 96-well cell culture plate with a 100 μL serially diluted test compound (200 μM top concentration) in HMI-9 + 10% FBS (24 wells per control drug or test compound, with the 24th well serving as drug-free). This is followed by adjusting the cell density of mid-log-phase trypanosome cultures to the required concentration of 2 × 10^5 cells/mL (2 × 10^4 cells/well). […] All incubations were carried out at 37 °C with 5% CO2. […] EC50 values were calculated using GraphPad Prism 9.0 software via nonlinear regression with an equation for a sigmoidal dose–response curve with variable slope (GraphPad Software Inc., San Diego, CA, USA).

The test system of data set [7] is T. evansi WT. Put plainly: Resazurin-based drug sensitivity assay, T. evansi WT. It is filed as cell-based. The protocol:
as §1, §2

Data set [8] relates to T. congolense WT. Briefly: Drug sensitivity assay, T. congolense WT bloodstream forms. It is filed as cell-based. Conditions: Trypanosoma congolense. On the procedure:
The susceptibilities of trypanosomes to compound 1 were determined as previously described using the resazurin (Alamar Blue) assay. Briefly, this protocol involves preparing a 96-well cell culture plate with a 100 μL serially diluted test compound (200 μM top concentration) in HMI-9 + 10% FBS (24 wells per control drug or test compound, with the 24th well serving as drug-free). This is followed by adjusting the cell density of mid-log-phase trypanosome cultures to the required concentration of 2 × 10^5 cells/mL (2 × 10^4 cells/well). Then, 100 μL of the adjusted cell density/culture was added to all 24 wells in the plate, then incubating trypanosomes and test compound for 48 h followed by the addition of 20 μL filter-sterilized resazurin solution prepared by adding 25 mg resazurin sodium salt to 200 mL filter-sterilized PBS. This was followed by a further 24 h of incubation. All incubations were carried out at 37 °C with 5% CO2. […] Fluorescence was measured in the 96-well plates with a FLUOstar Optima (BMG Labtech, Durham, NC, USA) at wavelengths of 544 nm for excitation, 590 for emission, and a gain of 1250. EC50 values were calculated using GraphPad Prism 9.0 software via nonlinear regression with an equation for a sigmoidal dose–response curve with variable slope (GraphPad Software Inc., San Diego, CA, USA).

The subject of data set [9] is T. brucei B48. Put plainly: microbe, parasite or virus in culture. It is filed as cell-based, T. b. brucei. Conditions: Trypanosoma brucei, read-out: T. brucei B48 EC50. The protocol:
as §1, §2

Data set [10] concerns T. equiperdum WT. Put plainly: Resazurin-based drug sensitivity assay, T. equiperdum WT. It is filed as cell-based. As to conditions: Trypanosoma equiperdum. On the procedure:
as §1, §2

Data set [11] relates to T. brucei aqp1-3 null. Put plainly: microbe, parasite or virus in culture. It is filed as cell-based, T. b. brucei. Conditions: Trypanosoma brucei, read-out: aqp1-3 null EC50. The protocol:
as §1, §2

In data set [12] the test system is T. b. brucei SUR10. Briefly: microbe, parasite or virus in culture. It is filed as cell-based. As to conditions: Trypanosoma brucei, read-out: SUR10 EC50.
[13] abbreviates: read-out: IC50 against rTAO, activity against TAO reported earlier.
Where [14] appears, read: read-out: rTAO IC50 (supplementary csv, compounds 4, 6, 8-10, 12), IC50 (µM).

T1 sequence (Q26710 26-329, stated change not applied): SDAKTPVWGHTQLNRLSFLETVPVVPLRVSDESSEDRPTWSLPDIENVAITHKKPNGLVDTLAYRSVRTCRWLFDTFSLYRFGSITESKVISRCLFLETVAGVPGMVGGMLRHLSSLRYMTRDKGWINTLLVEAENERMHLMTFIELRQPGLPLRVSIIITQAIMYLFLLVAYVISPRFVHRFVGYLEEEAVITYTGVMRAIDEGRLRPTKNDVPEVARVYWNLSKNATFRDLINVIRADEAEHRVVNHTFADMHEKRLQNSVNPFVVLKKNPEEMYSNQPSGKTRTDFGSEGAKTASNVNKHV

For `C/C(=C\Cc1c(O)c(Cl)c(C)c(C=O)c1O)CC/C=C(\C)[C@@H]1CC(=O)C(C)(C)O1` [AF, Ascofuranone, reference compound], in data set [1], the “Type of inhibition of TAO” value is on record as “competitive”.
`Cc1cc(O)cc(O)c1C(=O)OCCCCCCCCCCCCCC[P+](c1ccccc1)(c1ccccc1)c1ccccn1` [Compound 2, {14-[(2,4-Dihydroxy-6-methylbenzoyl)-oxy]-tetradecyl}-diphenyl(pyridin-2-yl)-Phosphonium Bromide]: in [2], the 50% inhibitory concentration (IC50) was determined as 1600 nM.
Consider `Cc1cc(O)ccc1C(=O)CCCCCCCCCCCCCCC[P+](c1ccccc1)(c1ccccc1)c1ccccn1.[Br-]` [Compound 3], for which, in [2], the half-inhibitory concentration (IC50) was above 5000 nM. Also, the “Inhibition of TAO at the highest concentration tested” value in [2] (5 μM) is on record as “did not inhibit”.
Turning to `Cc1cc(O)ccc1C(=O)OCCCCCCCCCCCCCC[P+](c1ccccc1)(c1ccccc1)c1ccccc1` [Compound 4], the IC50 in [3] (setting [13]) was 0.081 µM and ~0.08 µM.
Turning to `Cc1cc(O)ccc1C(=O)OCCCCCCCCCCCCCC[n+]1cccc2ccccc21.[Br-]` [Compound 6], the “Type of inhibition of TAO” value in data set [1] is on record as “competitive”. Moreover, the concentration for half-maximal inhibition (IC50) in data set [3] (setting [14]) is 0.03 ± 0.005 µM.
For the compound `Cc1c(Cl)c(O)c(Cl)c(O)c1C(=O)OCCCCCCCCCCCCCC[P+](c1ccccc1)(c1ccccc1)c1ccccc1` [Compound 7, {14-[(3,5-Dichloro-2,4-dihydroxy-6-methylbenzoyl)-oxy]-tetradecyl}-Triphenylphosphonium Bromide], the IC50 in data set [2] turned out to be 160 nM.
For the compound `Cc1cc(O)cc(O)c1C(=O)OCCCCCCCCCCCCCC[P+](c1ccccc1)(c1ccccc1)c1ccccc1.[Br-]` [Compound 8], the “Half-life (phase 2 metabolism)” value in [4] (S9 fraction and cofactor UDPGA) is “approximately 2 h”. The Reduction of parasitemia in data set [5] was 95%. Further, the “Type of inhibition of TAO” value in data set [1] was “competitive”. In addition, the half-maximal inhibitory concentration (IC50) in [3] (setting [13]) was ~0.08 µM and 0.088 µM.
Consider `Cc1cc(O)cc(O)c1C(=O)OCCCCCCCCCCCCCC[n+]1cccc2ccccc21.[Br-]` [Compound 9], for which the “Phase 2 metabolism” value in [4] is given as “lack of phase 2 metabolism”. In addition, in data set [5], the Reduction of parasitemia was 95%. Also, the IC50 in data set [3] (setting [14]) was 0.104 ± 0.011 µM.
Regarding `Cc1cc[n+](CCCCCCCCCCCCCCOC(=O)c2c(C)cc(O)cc2O)cc1` [Compound 10], the IC50 in data set [3] (setting [14]) is above 5 µM.
Take `N=C(N)c1ccc(/N=N/Nc2ccc(C(=N)N)cc2)cc1` [Dim., Diminazene aceturate]: the EC50 amounted to 81 ± 13 nM in [6] (read-out: T. b. brucei WT (+5 mM glycerol) EC50); 65 ± 21 nM in data set [6] (read-out: T. b. brucei WT (no glycerol) EC50); 51.4 ± 12 nM in [7]; 252 ± 18 nM in data set [8]; 1220 ± 20 nM in data set [9]; 33.2 ± 10 nM in data set [10].
In the case of `N=C(N)c1ccc(OCCCCCOc2ccc(C(=N)N)cc2)cc1` [Pent., Pentamidine isethionate], the concentration giving a half-maximal response (EC50) in [6] (read-out: T. b. brucei WT (+5 mM glycerol) EC50, incubated in the presence of 5 mM glycerol) was determined as 6.2 ± 1.7 nM; in [6] (s427, no glycerol, n ≥ 4, read-out: T. b. brucei WT (no glycerol) EC50), 4.2 ± 0.8 nM; in data set [7], 5.1 ± 2.1 nM; in [11] it was 0.0514 ± 0.0118 µM; in [9], 1020 ± 200 nM; in data set [10], 8.1 ± 1.1 nM.
As to `O=C(NO)c1ccccc1O` [SHAM, Salicylhydroxamic acid], the concentration giving a half-maximal response (EC50) in [11] was 6.88 ± 0.11 µM.
Regarding `Cc1ccc(C(=O)Nc2ccc(S(=O)(=O)O)c3cc(S(=O)(=O)O)cc(S(=O)(=O)O)c23)cc1NC(=O)c1cccc(NC(=O)Nc2cccc(C(=O)Nc3cc(C(=O)Nc4ccc(S(=O)(=O)O)c5cc(S(=O)(=O)O)cc(S(=O)(=O)O)c45)ccc3C)c2)c1` [Suramin, reference compound], in data set [12], the concentration for a half-maximal effect (EC50) stood at 190 ± 20 nM.
